Data: patent publication EP1268431B1 (Wyeth, priority 2000, dated 2001)
Where “and” joins values, the source holds several entries; their conditions need not be identical. Equal values may be shown once.

Legend:
[1] = system: Human adenocarcinoma cell line LoVo; assay: Cell Based Screen for Inhibitors of Raf Kinase, LoVo cells; details: four days, SRB
Method: (§1) • Cell Lines: Human adenocarcinoma cell line LoVo which is known to be growth inhibited by low nM concentrations of a reference standard inhibitor of Ras and human adenocarcinoma cell line CaCo-2, which is known to be growth resistant to the same reference compound. • Cell Media: RPMI 1640 with 10% Fetal Bovine Serum supplemented with L-glutamine and Pennicilin/Streptomycin. • Compounds: Supplied usually as a 10 mM stock in 100% DMSO. • Normal Saline: 150 mM NaCl • Trichloroacetic Acid (TCA): 50% (w/v) in water • Sulforhodamine B (SRB): 0.4% (w/v) in 1% Acetic Acid • Tris Base: 10 mM in water
(§2) Cells are plated at 2000 cells per well for cell line LoVo and 1500 cells for cell line CaCo-2 in 96 well plates. Cells are plated in media (200 µl) and allowed to adhere overnight at 37° C. At 24 hours post plating, compounds are added directly at a volume of 0.5 µl. For the qualitative screen (compounds screened at 25 µM) compound is added directly to cells. For the quantitative screen, compound is first diluted in DMSO to generate concentrations of compound or reference standard of: 1, 5, 10 and 25 µM. It is advisable to make the dilutions in an identical 96 well plate so that compounds may be added using a multichannel micropipettor set at 0.5 µl. The cells are then incubated for four days after which the media is removed using a 12 well manifold by first tipping the plate forward at a 45 degree angle and then inserting the manifold in an upright orientation to prevent the tips of the manifold from disturbing cells at the bottom of the plate. 200 µl of normal saline is then added to each well using an 8 well multichannel pipettor, followed by the careful addition of 50 µl of 50% TCA. The plates are then incubated for 2 hours at 4 ° C, after which the supernatant is removed using the same technique as above and the plated washed twice with 200 µl water. The plates are then air dried and 50 µl of SRB stock solution is carefully added so that the entire bottom of each well is covered. This again may be used using an 8 well multichannel pipettor. The SRB is incubated with fixed cells for 15 minutes at room temperature after which the SRB is removed with the manifold as described above and the plates washed twice with 350 µl of 1% acetic acid per well each time.The plates are then air dried after which the bound SRB is released from protein by the addition of 200 µl of Tris base. Resolubilizing the SRB is aided by placing the plates on a rotator for 15-30 minutes. The absorbance of each well is determined at 550 or 562 nm using a microtiter plate reader.
(§3) Each compound or dilution thereof is performed in triplicate. Outliers are identified by visual inspection of the data. Each plate should have a "0" control (vehicle only).
(§4) Quantitative Assay: A standard curve is constructed by plotting the concentration of compound against the average absorbance calculated at that concentration. A curve is plotted and the concentration at which the curve passes through the 50% the absorbance mark seen in the "0" control well is the IC50 calculated for that compound. […]

[2] = system: human adenocarcinoma cell line CaCo-2; assay: Cell Based Screen for Inhibitors of Raf Kinase, CaCo-2 cells; details: CaCo-2, four days, SRB
Method: as §1, §2, §3, §4

Row | SMILES | IC50 ([1]; Homo sapiens, 96 h) [nM] | IC50 [1] | IC50 ([2]; Homo sapiens, Caco-2, 96 h) [nM] | IC50 [2] [nM]
1 | Cn1ccnc1Sc1ccc(Nc2c(C#N)cnc3cc(-c4ccc(CN5CCOCC5)c(CN5CCOCC5)c4)ccc23)cc1Cl [Example 35, 7-[3,4-Bis(4-morpholinylmethyl)phenyl]-4-[3-chloro-4-[(1-methyl-1H-imidazol-2-yl)sulfanyl]anilino}-3-quinolinecarbonitrile] | < 5 | 6 nM | > 10000 | 
2 | COCCN(C)c1ccc(-c2ccc3c(Nc4ccc(Sc5nccn5C)c(Cl)c4)c(C#N)cnc3c2)cn1 [Example 212, 4-({3-chloro-4-[(1-methyl-1H-imidazol-2-yl)sulfanyl]phenyl}amino)-7-{6-[(2-methoxyethyl)(methyl)amino]-3-pyridinyl}-3-quinolinecarbonitrile] | 4 |  | 780 | 
3 | Cn1ccnc1Sc1ccc(Nc2c(C#N)cnc3cc(-c4ccc(CN5CCC(O)CC5)cn4)ccc23)cc1Cl [Example 172, 4-{3-chloro-4-[(1-methyl-1H-imidazol-2-yl)sulfanyl]anilino}-7-{5-[(4-hydroxy-1-piperidinyl)methyl]-2-pyridinyl}-3-quinolinecarbonitrile] | 7.9 |  | > 1000 | 
4 | Cn1ccnc1Sc1ccc(Nc2c(C#N)cnc3cc(-c4ccc(N5CCC(O)CC5)nc4)ccc23)cc1Cl [Example 214, 4-({3-chloro-4-[(1-methyl-1H-imidazol-2-yl)sulfanyl]phenyl}amino)-7-[6-(4-hydroxy-1-piperidinyl)-3-pyridinyl]-3-quinolinecarbonitrile] | 5.7 |  | > 1000 | 
5 | CN1CCN(Cc2ccc(-c3ccc4c(Nc5ccc(Sc6nccn6C)c(Cl)c5)c(C#N)cnc4c3)nc2)CC1 [Example 189, 4-{3-chloro-4-[(1-methyl-1H-imidazol-2-yl)sulanyl]anilino}-7-{5-[(4-methyl-1-piperazinyl)methyl]-2-pyridinyl}-3-quinolinecarbonitrile] | 6 |  | 1250 | 
6 | COc1cc2c(Nc3ccc(Sc4nccn4C)c(Cl)c3)c(C#N)cnc2cc1-c1csc(CN2CCOCC2)c1 [Example 125, 4-{3-Chloro-4-[(1-methyl-1H-imidazol-2-yl)sulfanyl]anilino}-6-methoxy-7-[5-(4-morpholinylmethyl)-3-thienyl]-3-quinolinecarbonitrile] | 20 | 15 nM | 1900 | 2800
7 | Cn1ccnc1Sc1ccc(Nc2c(C#N)cnc3cc(-c4ccc(CN5CCOCC5)nc4)ccc23)cc1Cl [Example 109, 4-({3-Chloro-4-[(1-methyl-1H-imidazol-2-yl)sulfanyl]phenyl}amino)-7-[6-(4-morpholinylmethyl)-3-pyridinyl]-3-quinolinecarbonitrile] | 6.8 |  | 980 | 
8 | CN1CCN(Cc2ccc(-c3ccc4c(Nc5ccc(Sc6nccn6C)c(Cl)c5)c(C#N)cnc4c3)cn2)CC1 [Example 221, 4-({3-chloro-4-[(1-methyl-1H-imidazol-2-yl)sulfanyl]phenyl}amino)-7-{6-[(4-methyl-1-piperazinyl)methyl]-3-pyridinyl}-3-quinolinecarbonitrile] | 74 |  | > 1000 | 
9 | Cn1ccnc1Sc1ccc(Nc2c(C#N)cnc3cc(-c4ccc(CN5CCN(CCO)CC5)s4)ccc23)cc1Cl [Example 161, 4-{3-chloro-4-[(1-methyl-1H-imidazol-2-yl)sulfanyl]anilino}-7-(5-{[4-(2-hydroxyethyl)-1-piperazinyl]methyl}-2-thienyl)-3-quinolinecarbonitrile] | 5.6 |  | > 1000 | 
10 | Cn1ccnc1Sc1ccc(Nc2c(C#N)cnc3cc(-c4ccc(N5CCN(CCO)CC5)nc4)ccc23)cc1Cl [Example 215, 4-({3-chloro-4-[(1-methyl-1H-imidazol-2-yl)sulfanyl]phenyl}amino)-7-{6-[4-(2-hydroxyethyl)-1-piperazinyl]-3-pyridinyl}-3-quinolinecarbonitrile] | 3.5 |  | > 1000 | 
11 | CN1CCN(c2ccc(-c3ccc4c(Nc5ccc(Sc6nccn6C)c(Cl)c5)c(C#N)cnc4c3)cn2)CC1 [Example 196, 4-{3-chloro-4-[(1-methyl-1H-imidazol-2-yl)sulfanyl]anilino}-7-[6-(4-methyl-1-piperazinyl)-3-pyridinyl]-3-quinolinecarbonitrile] | < 5 | 2.9 nM | 1100 | 550
12 | Cn1ccnc1Sc1ccc(Nc2c(C#N)cnc3cc(-c4ccc(N5CCSCC5)nc4)ccc23)cc1Cl [Example 110, 4-({3-Chloro-4-[(1-methyl-1H-imidazol-2-yl)sulfanyl]phenyl}amino)-7-[6-(4-thiomorpholinyl)-3-pyridinyl]-3-quinolinecarbonitrile] | 10 |  | > 1000 | 
13 | Cn1ccnc1Sc1ccc(Nc2c(C#N)cnc3cc(-c4cc(CN5CCOCC5)c(CN5CCOCC5)s4)ccc23)cc1Cl [Example 169, 7-[4,5-bis(4-morpholinylmethyl)-2-thienyl]-4-{3-chloro-4-[(1-methyl-1H-imidazol-2-yl)sulfanyl]anilino}-3-quinolinecarbonitrile] | 40 | 47 nM |  | 
14 | N#Cc1cnc2cc(-c3cc(CN4CCOCC4)c(CN4CCOCC4)s3)ccc2c1Nc1ccc(Oc2ccccc2)cc1 [Example 168, 7-[4,5-bis(4-morpholinylmethyl)-2-thienyl]-4-(4-phenoxyanilino)-3-quinolinecarbonitrile] | 2000 |  | 4600 | 
15 | CN1CCN(Cc2ccnc(-c3ccc4c(Nc5ccc(Sc6nccn6C)c(Cl)c5)c(C#N)cnc4c3)c2)CC1 [Example 206, 4-({3-chloro-4-[(1-methyl-1H-imidazol-2-yl)sulfanyl]phenyl}amino)-7-{4-[(4-methyl-1-piperazinyl)methyl]-2-pyridinyl}-3-quinolinecarbonitrile] | 280 |  | > 1000 | 
16 | Cn1ccnc1Sc1ccc(Nc2c(C#N)cnc3cc(-c4ccc(CN5CCN(CCO)CC5)o4)ccc23)cc1Cl [Example 157, 4-{3-chloro-4-[(1-methyl-1H-imidazol-2-yl)sulfanyl]anilino}-7-(5-{[4-(2-hydroxyethyl)-1-piperazinyl]methyl}-2-furyl)-3-quinolinecarbonitrile] | 24.5 |  | > 1000 | 
17 | Cn1ccnc1Sc1ccc(Nc2c(C#N)cnc3cc(-c4cc(CN5CCOCC5)ccn4)ccc23)cc1Cl [Example 203, 4-({3-chloro-4-[(1-methyl-1H-imidazol-2-yl)sulfanyl]phenyl}amino)-7-[4-(4-morpholinylmethyl)-2-pyridinyl]-3-quinolinecarbonitrile] | 9.7 |  | > 1000 | 
18 | CCN1CCN(Cc2ccc(-c3ccc4c(Nc5ccc(Sc6nccn6C)c(Cl)c5)c(C#N)cnc4c3)nc2)CC1 [Example 171, 4-{3-chloro-4-[(1-methyl-1H-imidazol-2-yl)sulfanyl]anilino}-7-{5-[(4-ethyl-1-piperazinyl)methyl]-2-pyridinyl}-3-quinolinecarbonitrile] | 8 | 5 nM and < 5 nM |  | 
19 | Cn1ccnc1Sc1ccc(Nc2c(C#N)cnc3cc(-c4ccc(N5CCOCC5)nc4)ccc23)cc1Cl [Example 190, 4-{3-chloro-4-[(1-methyl-1H-imidazol-2-yl)sufanyl]anilino}-7-[6-(4-morpholinyl)-3-pyridinyl]-3-quinolinecarbonitrile] | 2 |  |  | 
